System in one test: not listed separately
Kind of test: Cytotoxicity against human U-87 MG cells measured after 3 days by Celltiter-glo assay. The class given is functional, U-87MG ATCC. The conditions noted are these: 72 h, time 3 day.
On to `Nc1ccn([C@@H]2O[C@H](CO)[C@@H](O)[C@@H]2O)c(=O)n1` [CYTARABINE], for which it took 0.19 µM to reach half-maximal cytotoxicity (CC50).

The next test has as its system Hepatitis C virus. Kind of test: Antiviral activity against HCV by replicon assay. The class given is functional, organism-based, Hepacivirus hominis.
Conditions: not given
In general terms: A replicon is a self-replicating genome or part of one, used to study replication in cells.
In the case of `C[C@@]1(F)[C@H](O)[C@@H](CO)S[C@@H]1n1ccc(=O)[nH]c1=O`, the concentration for a half-maximal effect (EC50) (usually the midpoint of the concentration-response curve) is greater than 100 µM.
Still for that read-out and setting: with `C[C@@]1(F)[C@H](O)[C@@H](CO)S[C@H]1n1ccc(=O)[nH]c1=O` the figure was greater than 100 µM.
As to `Nc1ccn([C@H]2[C@@H](O)[C@H](O)[C@@H](CO)[S+]2[O-])c(=O)n1` (mixture of isomers), the concentration giving a half-maximal response (EC50) is greater than 100 µM.
Same read-out and setting: to `C[C@@]1(F)[C@H](O)[C@@H](CO)S[C@@H]1n1ccc(N)nc1=O` belongs greater than 100 µM; to `O=c1ccn([C@@H]2O[C@H](CO)[C@@H](O)[C@@H]2O)c(=O)[nH]1` [ARAURIDINE], greater than 100 µM; to `Nc1ccn([C@@H]2S[C@H](CO)[C@@H](O)C2(F)F)c(=O)n1`, 22.5 µM.
The same measure, in the same setting: to `CC(C)OC(=O)[C@H](C)N[P@](=O)(OC[C@H]1O[C@@H](n2ccc(=O)[nH]c2=O)[C@](C)(F)[C@@H]1O)Oc1ccccc1` [SOFOSBUVIR] belongs 0.03 µM; to `C[C@@]1(F)[C@H](O)[C@@H](CO)S[C@H]1n1ccc(N)nc1=O`, greater than 100 µM.
The same measure, in the same setting: to `Nc1ccn([C@@H]2O[C@H](CO)[C@@H](O)[C@H]2O)c(=O)n1` [CYTIDINE] belongs 50 µM; to `Nc1ccn([C@@H]2O[C@H](CO)[C@@H](O)[C@@H]2O)c(=O)n1` [CYTARABINE], 0.16 µM; to `Nc1ccn([C@H]2[C@H](O)[C@H](O)[C@@H](CO)[S+]2[O-])c(=O)n1` (stereo not given in full), greater than 100 µM.
The compound `Nc1ccn([C@@H]2[S+]([O-])[C@H](CO)[C@@H](O)C2(F)F)c(=O)n1` (mixture of isomers) displayed an EC50 of 21.8 µM.
Compound `CC(C)OC(=O)[C@@H](C)N[P@](=O)(OC[C@H]1S[C@@H](n2ccc(=O)[nH]c2=O)[C@](C)(F)[C@@H]1O)Oc1ccccc1` came in with an EC50 of 2.99 µM.
Same read-out and setting: to `O=c1ccn([C@@H]2O[C@H](CO)[C@@H](O)[C@H]2O)c(=O)[nH]1` [URIDINE] belongs 65.9 µM.

These data come from ChEMBL document CHEMBL5131483, “Design, chemical synthesis and antiviral evaluation of 2'-deoxy-2'-fluoro-2'-C-methyl-4'-thionucleosides” (Bioorg Med Chem Lett, 2022).
